In patent US9938301B2, “Dihydropyrimido fused ring derivative as HBV inhibitor” (QILU PHARMACEUTICAL CO., LTD., priority 2014, dated 2018):

What follows are compounds tested on HBV DNA in HepG2.2.15 cells (assay: HBV in vitro dot-blot hybridization test). Conditions: Hepatitis B virus, HepG2.2.15, dot-blot hybridization assay, read-out: Concentration for 50% inhibition of HBV (EC50)value.
Type: cell-based, Hepatitis B virus
Description: • 1. Purpose of the test: • The content of HBV DNA in HepG2.2.15 cells was detected by dot-blot hybridization test to evaluate an inhibitory action of the compound on HBV with an EC50 value as an indicator. • 2. Experimental materials: • 2.1 Cell lines: HepG2.2.15 Cells • HepG2.2.15 cell culture media (DMEM/F12, Invitrogen-11330057; 10% serum Invitrogen-10099141; 100 units/mL Penicillin and 10 μg/mL Streptomycin, Invitrogen-15140122; 1% non-essential amino acid, Invitrogen-11140076; 2 mM L-GLUTAMINE, Invitrogen-25030081; 300 µg/ml Geneticin, Invitrogen-10131027 • 2.2 Reagents: • Trypsin (I Invitrogen-25300062) • DPBS (Hyclone-SH30028.01B) • DMSO (Sigma-D2650-100ML) • 96-well cell-culture plate (Corning-3599) • CO2 incubator (HERA-CELL-240) • 20×SSC (Bio-serve Co. Ltd) • Tris-HCl (Aldirch-154563-1KG) • NaOH (Sinopharm 10019718) • NaCl (Sinopharm 10019308) • Hybridization solution (Major BioTech Co. Ltd, IMMUNE GOLD-HYB-500) • DIG Wash and Block Buffer set (Roche-11585762001) • Anti-digoxigenin-AP, Fab fragments from sheep (Roche-11093274910) • 2.3 Materials and Instruments: • Positively-Charged Nylon Membrane (GE-RPN2250B) • Transfer Membrane Instrument (Bio-Rad, 170-6545) • Hybridization Oven (HL-2000 Hybrilinker) • 3. Testing steps and Methods: • 3.1 HepG2.2.15 cells (4×10^4 cells/well) were planted into a 96-well plate, and at 37° C., 5% CO2 cultured overnight. • 3.2 On Day 2, the compounds were diluted in totally 6 concentrations with a dilution gradient of five times. The compounds at different concentrations were added into the culture wells in duplicate. The final concentration of DMSO in the culture media was 1%. 1 μM GLS4 was used as 100% inhibition control; 1% DMSO as 0% inhibition control. • 3.3 On Day 5, replacing with the fresh culture media containing the compound was performed. • 3.4 On Day 8 and Day 9, the culture media in the culture wells was removed, and the cells were harvested for dot-blot hybridization. • The lysate was added into a culture well, and at 37° C. incubating for half an hour to disintegrate cells; the supernatant was obtained by centrifugation and transferred into a new microplate; a denaturation solution was added, after sufficient mixing the denatured sample was transferred and imprinted onto a Nylon membrane, the nucleic acid was fixed onto the membrane by UV cross-linking. • Pre-hybridization: the membrane was incubated at 60° C. in a hybridization solution for 1 hour. • Hybridization: heating the denatured digoxin-labelled HBV DNA probe and incubating at 60° C. overnight. • Membrane Washing: performing high strigency washing twice, low strigency washing for 3 times. • Blocking: incubating the membrane at room temperature in a blocking solution for 30-60 minutes. • Hybridization: diluting the Antibody Solution with the blocking solution, in which the membrane was placed and incubated at room temperature for 30-60 minutes. • Developing: washing the membrane in a Detection Buffer for 5 minutes, followed by adding a developing solution, pressing and exposing. • The photos was saved in tiff format, and a gray value of the dot was quantified with quantity one software. • 3.5 Data Analysis: • 3.5.1 The inhibition percentage was calculated: % Inh.=[1−(sample dot gray value−1 μM GLS4 dot gray value 1)/(DMSO control dot gray value−1 μM GLS4 dot gray value 1)]×100. • 3.5.2 Calculating EC50: the concentration of the compound for 50% inhibition of HBV (EC50) was calculated by using GraphPad Prism Software. • 4.

SMILES | EC50 [nM]
CCOC(=O)C1=C2CCCN2C(c2nccs2)=NC1c1ccc(F)cc1 (racemic) [Example 73] | 1000 to 5000
CCOC(=O)C1=C2CCCN2C(c2nccs2)=NC1c1cc(Cl)sc1Cl (racemic) [Example 74] | 1000 to 5000
CCOC(=O)C1=C2CCCN2C(c2nccs2)=NC1(C)c1ccc(F)cc1 (racemic) [Example 75] | 1000 to 5000
CCOC(=O)C1=C2CCCN2C(c2ncc(F)cc2F)=NC1c1ccc(F)cc1Cl (racemic) [Example 76] | 1000 to 5000
CCOC(=O)C1=C2CCCN2C(c2ccsn2)=NC1c1ccc(F)cc1Cl (racemic) [Example 77] | 1000 to 5000
CCOC(=O)C1=C2CCCN2C(c2nccn2C)=NC1c1ccc(F)cc1Cl (racemic) [Example 78] | 1000 to 5000
CCOC(=O)C1=C2CCCN2C(c2nc(C)cs2)=NC1c1ccc(F)cc1Cl (racemic) [Example 79] | 1000 to 5000
COCOC(=O)C1=C2CCCN2C(c2nccs2)=NC1c1ccc(F)cc1Br (racemic) [Example 80] | 1000 to 5000
O=C(OCC(F)F)C1=C2CCCN2C(c2nccs2)=NC1c1ccc(F)cc1Br (racemic) [Example 81] | 1000 to 5000
CCOC(=O)C1=C2CNCCN2C(c2nccs2)=NC1c1ccc(F)cc1Br (racemic) [Example 83] | 1000 to 5000
CCOC(=O)C1=C2CN(C(C)=O)CCN2C(c2nccs2)=NC1c1ccc(F)cc1Br (racemic) [Example 86] | 500 to 1000
CCOC(=O)C1=C2CN(S(C)(=O)=O)CCN2C(c2nccs2)=NC1c1ccc(F)cc1Br (racemic) [Example 87] | 500 to 1000
CCOC(=O)C1=C2CN(CC(N)=O)CCN2C(c2nccs2)=NC1c1ccc(F)cc1Br (racemic) [Example 95] | 100 to 500
CCOC(=O)C1=C2CN(C)CCN2C(c2nccs2)=NC1c1ccc(F)cc1Br (racemic) [Example 96] | 1000 to 5000
CCOC(=O)C1=C2CN(Cc3ccc(OC)cc3)CCN2C(c2nccs2)=NC1c1ccc(F)cc1Br (racemic) [Example 97] | 1000 to 5000
CCOC(=O)C1=C2CNC(=O)CN2C(c2nccs2)=NC1c1ccc(F)cc1Br (racemic) [Example 104] | 1000 to 5000

Same assay, conditions: Hepatitis B virus, HepG2.2.15, summary list of target compounds, Examples 1-165 (same as Table 2), read-out: BIOACTIVITY (inhibitory actions on HBV DNA, EC50)

SMILES | EC50 [nM]
CCOC(=O)C1=C2CCCN2C(c2nccs2)=NC1c1ccc(F)cc1 (racemic) [Example 73] | 1000 to 5000
CCOC(=O)C1=C2CCCN2C(c2nccs2)=NC1c1cc(Cl)sc1Cl (racemic) [Example 74] | 1000 to 5000
CCOC(=O)C1=C2CCCN2C(c2nccs2)=NC1(C)c1ccc(F)cc1 (racemic) [Example 75] | 1000 to 5000
CCOC(=O)C1=C2CCCN2C(c2ncc(F)cc2F)=NC1c1ccc(F)cc1Cl (racemic) [Example 76] | 1000 to 5000
CCOC(=O)C1=C2CCCN2C(c2ccsn2)=NC1c1ccc(F)cc1Cl (racemic) [Example 77] | 1000 to 5000
CCOC(=O)C1=C2CCCN2C(c2nccn2C)=NC1c1ccc(F)cc1Cl (racemic) [Example 78] | 1000 to 5000
CCOC(=O)C1=C2CCCN2C(c2nc(C)cs2)=NC1c1ccc(F)cc1Cl (racemic) [Example 79] | 1000 to 5000
COCOC(=O)C1=C2CCCN2C(c2nccs2)=NC1c1ccc(F)cc1Br (racemic) [Example 80] | 1000 to 5000
O=C(OCC(F)F)C1=C2CCCN2C(c2nccs2)=NC1c1ccc(F)cc1Br (racemic) [Example 81] | 1000 to 5000
CCOC(=O)C1=C2CNCCN2C(c2nccs2)=NC1c1ccc(F)cc1Br (racemic) [Example 83] | 1000 to 5000
CCOC(=O)C1=C2CN(C(C)=O)CCN2C(c2nccs2)=NC1c1ccc(F)cc1Br (racemic) [Example 86] | 500 to 1000
CCOC(=O)C1=C2CN(S(C)(=O)=O)CCN2C(c2nccs2)=NC1c1ccc(F)cc1Br (racemic) [Example 87] | 500 to 1000
CCOC(=O)C1=C2CN(CC(N)=O)CCN2C(c2nccs2)=NC1c1ccc(F)cc1Br (racemic) [Example 95] | 100 to 500
CCOC(=O)C1=C2CN(C)CCN2C(c2nccs2)=NC1c1ccc(F)cc1Br (racemic) [Example 96] | 1000 to 5000
CCOC(=O)C1=C2CN(Cc3ccc(OC)cc3)CCN2C(c2nccs2)=NC1c1ccc(F)cc1Br (racemic) [Example 97] | 1000 to 5000
CCOC(=O)C1=C2CNC(=O)CN2C(c2nccs2)=NC1c1ccc(F)cc1Br (racemic) [Example 104] | 1000 to 5000

Same assay, conditions: dot-blot hybridization assay, read-out: Concentration for 50% inhibition of HBV (EC50)value

SMILES | EC50 [nM]
CCOC(=O)C1=C2C[C@@H](CC#N)CN2C(c2nccs2)=NC1c1ccc(F)cc1Br (mixture of isomers) [Example 11] | 1000 to 5000
CCOC(=O)C1=C2C[C@@H](CC#N)CN2C(c2nccs2)=NC1c1ccc(F)cc1Br (mixture of isomers) [Example 12] | 100 to 500
CCOC(=O)C1=C2C[C@@H](C#N)CN2C(c2nccs2)=NC1c1ccc(F)cc1Br (mixture of isomers) [Example 26] | 500 to 1000
CCOC(=O)C1=C2C[C@@H](C#N)CN2C(c2nccs2)=NC1c1ccc(F)cc1Br (mixture of isomers) [Example 27] | 100 to 500

Same assay, conditions: summary list of target compounds, Examples 1-165 (same as Table 2), read-out: BIOACTIVITY (inhibitory actions on HBV DNA, EC50)

SMILES | EC50 [nM]
CCOC(=O)C1=C2C[C@@H](CO)CN2C(c2nccs2)=NC1c1ccc(F)cc1Br (mixture of isomers) [Example 9] | 100 to 500
CCOC(=O)C1=C2C[C@@H](CC#N)CN2C(c2nccs2)=NC1c1ccc(F)cc1Br (mixture of isomers) [Example 11] | 1000 to 5000
CCOC(=O)C1=C2C[C@@H](CC#N)CN2C(c2nccs2)=NC1c1ccc(F)cc1Br (mixture of isomers) [Example 12] | 100 to 500
CCOC(=O)C1=C2C[C@@H](CN3CCOCC3)CN2C(c2nccs2)=NC1c1ccc(F)cc1Br (mixture of isomers) [Example 18] | 1000 to 5000
CCOC(=O)C1=C2C[C@@H](C#N)CN2C(c2nccs2)=NC1c1ccc(F)cc1Br (mixture of isomers) [Example 26] | 500 to 1000
CCOC(=O)C1=C2C[C@@H](C#N)CN2C(c2nccs2)=NC1c1ccc(F)cc1Br (mixture of isomers) [Example 27] | 100 to 500
CCOC(=O)C1=C2C[C@@H](C(N)=O)CN2C(c2nccs2)=NC1c1ccc(F)cc1Br (mixture of isomers) [Example 29] | 100 to 500
